# Values of other authors as cited in US20010041741A1, “Composition for improvement of cellular nutrition and mitochondrial energetics” (priority 1997, published 2001).
# Where two headings read alike, the source gives them in different places.
# Columns and labels:
# [1] = test system: animals and patients with heart failure or myocardial ischemia; conditions: L-carnitine 3-5 grams, proprionyl-1-carnitine 1.5-3.0 grams
# [2] = not given; remark: listed apart in the source
# [3] = test system: patients with heart failure; conditions: creatine supplement
# [4] = test system: patients suffering from congestive heart failure; conditions: oral dose of 1 gram three times per day
# [5] = test system: in-patients with heart failure and on long-term furosemide therapy
smiles,measurement,setting,value
"C[N+](C)(C)C[C@H](O)CC(=O)[O-] [L-carnitine, 3-hydroxy-4-N-trimethylaminobutyric acid]",Time of peak plasma concentration,following oral administration,3 h
same,T½ of plasma decay,following oral administration,3 to 4 h
same,Tolerance / adverse effects,in vivo,well tolerated and no adverse effects have been described
same,Bioavailability,oral,5-20%
same,Hemodynamics,[1],significant hemodynamic improvement
"COC1=C(OC)C(=O)C(C/C=C(\C)CC/C=C(\C)CC/C=C(\C)CC/C=C(\C)CC/C=C(\C)CC/C=C(\C)CC/C=C(\C)CC/C=C(\C)CC/C=C(\C)CCC=C(C)C)=C(C)C1=O [Ubiquinone, 2,3 dimethoxy-5 methyl-6-decaprenyl benzoquinone]",Increase of mean steady state level in plasma,[2]; after 4 days of dosing at 100 mg 3 times daily,4-7 fold
same,"Liver enzymes (LDH, SGOT)",[2]; doses of 300 mg/day,asymptomatic elevations
same,Side effects,[2]; in vivo,virtually absent
same,T½ of plasma decay,[2]; oral,34 h
same,Time of plasma level peak,[2]; oral absorption,5 to 10 h
same,Share of an oral dose taken up by the myocardium,"[2]; oral, large hepatic first pass effect",2-5%
"CN(CC(=O)O)C(=N)N [creatine, Creatine]",Cardiac ejection fraction,[3],did not increase
same,"Skeletal muscle creatine phosphate, muscle strength and endurance",[3],significantly increased
"CCC(=O)O[C@H](CC(=O)[O-])C[N+](C)(C)C [proprionyl-1-carnitine, Proprionyl-1-carnitine]",Hemodynamics,[1],significant hemodynamic improvement
"NCCS(=O)(=O)O [taurine, 2-aminoethanesulfonic acid]",Hemodynamic state and functional capacity,[4],improve both hemodynamic state and functional capacity
same,Tolerance,[4],extremely well tolerated
"Cc1ncc(C[n+]2csc(CCO)c2C)c(N)n1 [thiamine, Thiamine]",Mean left ventricular ejection fraction,"[5]; after one week, 200 mg intravenous thiamine",increased significantly
same,Increase of left ventricular ejection fraction,"[5]; after six weeks of oral thiamine supplementation, 200 mg/day",22%
same,"Diuresis, excretion of sodium and water","[5]; within two days of thiamine supplementation, versus placebo",significant diuresis with increased excretion of sodium and water
